Data as given in patent EP0326331B1, “Substituted quinolines and cinnolines” (Dow AgroSciences LLC, priority 1988, dated 1989).

Tests used:
Type in all cases: in vivo
[1] = tested on: Puccinia recondita tritici (leaf rust); assay: Test 1 greenhouse foliar spray screen, leaf rust on wheat; details: Puccinia recondita, foliar, Test 1, foliar spray on wheat; disease control rating at 400 ppm / 100 ppm
[2] = tested on: Venturia inaequalis (apple scab); assay: Test 1 greenhouse foliar spray screen, apple scab on apple seedling; details: Venturia inaequalis; Test 1, foliar spray on apple seedling; disease control rating at 400 ppm / 100 ppm; read-out: APPL SCAB
[3] = tested on: Twospotted spider mites (Tetranychus urticae Koch); assay: Mite/insect screen, SM; details: for mortality at 200 ppm / mortality at 400 ppm: Tetranychus urticae, foliar, read-out: SM RESULTS %; for mortality at 200 ppm: rate 200 ppm; for activity as miticides: summary statement in the description
In short: (§1)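 Foliar spray to runoff (10 psi), 1 h drying; aqueous dilutions from acetone/alcohol emulsifier stock. Mortality (%) after standard exposure.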

[4] = tested on: Pyricularia oryzae (rice blast); assay: whole plant or invertebrate; details: for pest or weed control at 400 ppm: Pyricularia oryzae, foliar, read-out: RICE BLAST, Test 1, foliar spray on rice, disease control rating at 400 ppm / 100 ppm
[5] = tested on: Botrytis cinerea (gray mold); assay: Test 1 greenhouse foliar spray screen, gray mold on grape berries; details: Botrytis cinerea, foliar; Test 1, spray on grape berries; disease control rating at 400 ppm / 100 ppm
[6] = tested on: Pseudoperonospora cubensis (downy mildew); assay: Test 1 greenhouse foliar spray screen, downy mildew on squash; details: Pseudoperonospora cubensis, foliar, Test 1, foliar spray on squash; disease control rating at 400 ppm / 100 ppm; read-out: DOWN MDEW
[7] = tested on: Septoria tritici (leaf blotch); assay: Test 1 greenhouse foliar spray screen, leaf blotch on wheat; details: Zymoseptoria tritici; Test 1, foliar spray on wheat; disease control rating at 400 ppm / 100 ppm; read-out: LEAF BLOT
corn rootworm = assay: Mite/insect screen, CRW; details: percent mortality, read-out: CRW RESULTS %; for mortality at 12 ppm: CRW rate 12.00 ppm; for mortality at 24 ppm: CRW rate 24.00 ppm
In short: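 Following dissolution in equal parts acetone and alcohol with 23 g/L and 13 g/L emulsifier blends and dilution with water, test solutions were scored for percent mortality at the end of standard exposures.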

[8] = tested on: southern armyworm (Spodopetra eridania Cramer); assay: Mite/insect screen, SAW; details: percent mortality, foliar spray on squash; for mortality at 200 ppm / mortality at 400 ppm: Spodoptera eridania, foliar, read-out: SAW RESULTS %; for mortality at 200 ppm: rate 200 ppm
In short: as §1

[9] = tested on: melon aphids (Aphis gossypii Glover); assay: Mite/insect screen, MA; details: Aphis gossypii, foliar, percent mortality, foliar spray on squash, read-out: MA RESULTS %; for mortality at 200 ppm: rate 200 ppm; for mortality at 400 ppm: rate 400 ppm
In short: as §1

[10] = tested on: Erysiphe graminis tritici (powdery mildew); assay: Test 1 greenhouse foliar spray screen, powdery mildew on wheat; details: Blumeria graminis, foliar, Test 1, foliar spray on wheat; disease control rating at 400 ppm / 100 ppm; read-out: POWD MDEW
[11] = tested on: Cercospora beticola (leaf spot); assay: Test 1 greenhouse foliar spray screen, leaf spot on sugar beet; details: Cercospora beticola; Test 1, foliar spray on sugar beet; disease control rating at 400 ppm / 100 ppm
[12] = percent mortality, foliar spray on squash
[13] = percent mortality, rate 400 ppm, foliar spray on squash

| Structure (SMILES) | pest or weed control at 400 ppm [1] [%] | pest or weed control at 400 ppm [2] [%] | mortality at 200 ppm [3, 12] [%] | mortality at 400 ppm [3, 13] [%] | pest or weed control at 400 ppm [4] [%] | pest or weed control at 400 ppm [5] [%] | pest or weed control at 400 ppm [6] [%] | pest or weed control at 400 ppm [7] [%] | mortality at 12 ppm (corn rootworm) [%] | mortality at 24 ppm (corn rootworm) [%] | mortality at 200 ppm [8] [%] | mortality at 400 ppm ([8]; rate 400 ppm) [%] | mortality at 200 ppm [9] [%] | mortality at 400 ppm [9] [%] | pest or weed control at 400 ppm [10] [%] | pest or weed control at 400 ppm [11] [%] | activity as miticides [3] | SM RESULTS % [3, 13] [%] | SAW RESULTS % ([8]; rate 400 ppm) [%] | activity against rice blast ([4]; summary statement in the description) |
| --- | --- | --- | --- | --- | --- | --- | --- | --- | --- | --- | --- | --- | --- | --- | --- | --- | --- | --- | --- | --- |
| COc1ccccc1CCOc1ccnc2ccccc12 [Example 229, 4-[2-(2-methoxyphenyl)ethoxy]quinoline] | 90 to 100 | 0 to 19 | 50 | 0 | 90 to 100 | 0 to 19 | 90 to 100 | 20 to 89 | 0 | 0 | 0 | 0 | 50 | 0 | 20 to 89 | 0 to 19 | – | – | – | – |
| Clc1ccc2c(OCCc3ccc(-c4ccccc4)cc3)ccnc2c1 [Example 230, 7-chloro-4-[2-(1,1'-biphenyl)-4-yl-ethoxy]quinoline] | 20 to 89 | 0 to 19 | 100 | 80 | 0 to 19 | 0 to 19 | 0 to 19 | 0 to 19 | 0 | 0 | 0 | 0 | 90 | 0 | 90 to 100 | 0 to 19 | particularly excellent activity | – | – | – |
| Fc1ccc2c(OCCc3ccc(-c4ccccc4)cc3)ccnc2c1 [Example 233, 4-[2-(1,1'-biphenyl)-4-ylethoxy]-7-fluoroquinoline] | 90 to 100 | 0 to 19 | 100 | 80 | 90 to 100 | 0 to 19 | 20 to 89 | 20 to 89 | 0 | 0 | 0 | 0 | 50 | 80 | 20 to 89 | 0 to 19 | particularly excellent activity | – | – | – |
| Fc1ccc2c(OCCc3ccc(Cl)cc3)ccnc2c1 [Example 234, 4-[2-(4-chlorophenyl)ethoxy]-7-fluoroquinoline] | 90 to 100 | 0 to 19 | 50 | 30 | 20 to 89 | 0 to 19 | 20 to 89 | 20 to 89 | 0 | 0 | 60 | 0 | 50 | 100 | 20 to 89 | 20 to 89 | – | – | – | – |
| Cc1ccc(CCOc2ccnc3cc(F)ccc23)cc1 [Example 235, 7-fluoro-4-[2-(4-methylphenyl)ethoxy]quinoline] | 90 to 100 | 0 to 19 | 0 | 0 | 90 to 100 | 0 to 19 | 20 to 89 | 20 to 89 | 0 | 0 | 80 | 0 | 0 | 50 | 20 to 89 | 0 to 19 | – | – | – | – |
| Fc1ccc(CCOc2ccnc3cc(Cl)ccc23)cc1 [Example 236, 7-chloro-4-[2-(4-fluorophenyl)ethoxy]quinoline] | 20 to 89 | 0 to 19 | 0 | 0 | 0 to 19 | 0 to 19 | 0 to 19 | 0 to 19 | 0 | – | 0 | 0 | 0 | – | 90 to 100 | 0 to 19 | – | 0 | 0 | – |
| Fc1cccc2c(OCCc3cccc4ccccc34)ccnc12 [Example 244, 8-fluoro-4-[2-(1-naphthyl)ethoxy]quinoline] | 20 to 89 | 0 to 19 | 0 | – | 90 to 100 | 0 to 19 | 20 to 89 | 20 to 89 | 0 | – | 0 | – | 40 | – | 20 to 89 | 0 to 19 | – | – | – | – |
| c1csc(CCOc2ccnc3ccccc23)c1 [Example 245, 4-[2-(2-thienyl)ethoxy]quinoline] | 90 to 100 | 0 to 19 | 0 | – | 90 to 100 | 0 to 19 | 90 to 100 | 0 to 19 | 0 | – | 0 | – | 0 | – | 20 to 89 | 0 to 19 | – | – | – | – |
| Fc1cccc2c(OCCc3cccs3)ccnc12 [Example 246, 8-fluoro-4-[2-(2-thienyl)ethoxy]quinoline] | 90 to 100 | 90 to 100 | 0 | – | 90 to 100 | 0 to 19 | 90 to 100 | 90 to 100 | 0 | – | 0 | – | 0 | – | 90 to 100 | 20 to 89 | – | – | – | – |
| Fc1cccc2c(OCCc3ccc4ccccc4c3)ccnc12 [Example 247, 8-fluoro-4-[2-(2-naphthyl)ethoxy]quinoline] | 90 to 100 | 0 to 19 | 90 | 0 | 90 to 100 | 0 to 19 | 20 to 89 | 90 to 100 | 0 | 0 | 20 | 50 | 0 | 0 | 90 to 100 | 0 to 19 | particularly excellent activity | – | – | particularly excellent activity |
| Cc1ccc(CCOc2ccnc3c(OCCc4ccc(C)cc4)cccc23)cc1 [Example 251, 4,8-bis[2-(4-methylphenyl)ethoxy]quinoline] | 0 to 19 | 0 to 19 | 0 | – | 20 to 89 | 0 to 19 | 20 to 89 | 0 to 19 | 0 | – | 0 | – | 0 | – | 0 to 19 | 0 to 19 | – | – | – | – |
| c1ccc(CCCc2ccnc3ccccc23)cc1 [Example 252, 4-(3-phenylpropyl)quinoline] | 90 to 100 | 20 to 89 | 90 | 90 | 90 to 100 | 0 to 19 | 90 to 100 | 20 to 89 | 0 | 0 | 0 | 0 | 100 | 100 | 90 to 100 | 0 to 19 | – | – | – | – |
